From US20070104811A1, “Pharmaceutical composition useful for the treatment of prostate cancer” (priority 2005, published 2007)

Key:
[1] = test system: neonatal skeletal muscle cell; experiment: Cell viability of control cells: neonatal skeletal muscle cell; type: cell-based, rat; conditions: 100 μg/ml M. koenigii + 100 μg/ml T. terrestris, total 200 μg/ml; 96 h
Protocol: The skeletal muscles from 2-day-old neonatal rat were isolated by method described previously by William E Russell (1997) with modifications. Briefly, Soleus muscle were dissected, minced and digested with 0.2% Type II Collagenase and 0.05% trypsin in Phosphate buffered Saline (PBS) pH 7.4, 0.15M NaCl. The dispersed skeletal muscle cells were centrifuged (1000 g, 10 minutes) washed and resuspended in Phosphate buffered Saline (PBS) with 1% antibiotic-antimycotic. Cells were preincubated for 30 minutes at 37° C., 95% air/5%CO2. The floating muscle cells were plated on collagen coated T-25 flaks in Dulbecco's modified Eagle Medium enriched with 10% Fetal. Bovine Serum and 1% antibiotic-antimycotic
Viability of PC-3 after treatment as at the indicated times was determined by MTT assay -Cell titre 96 AQoueus One solution Cell Proliferation Assay (Promega, Corp. Madison, Wis.) as per manufacturer's protocol. Briefly, 10,000 cells were plated in triplicate in 96 well plates and incubated for 12 hours in complete media. Compound MK-3 was added as indicated on replacing them to fresh complete media and incubated upto 96 hours for varied time periods. 20 μl per well of cell titre 96 AQoueus One solution reagent. […] Absorbance was recorded at 490 nm with 96 well plate readers. Reference wavelength of 630 nm was used to reduce background contributed by non-specific absorbance due to cell debris.

[2] = test system: cardiomyocyte; experiment: Cell viability of control cells: neonatal cardiomyocyte; type: cell-based, rat; conditions: 100 μg/ml M. koenigii + 100 μg/ml T. terrestris, total 200 μg/ml; 96 h
Protocol: The cardiomyocytes from 2-day-old neonatal rat were isolated by the method previously described by Yoshihiro Kimura (1994) with modifications. Briefly, heart was excised and minced in pre warmed (37° C.) Ads buffer (1.2M NaCl, 198 mM HEPES, 54 mM KCl, 8.3 mM MgSO4, 55.4 mM glucose, 95 mM NaH2PO4), digested in typeII Collagenase 0.05% and Pancreatin in 3-succesive digestions of 15 minutes each. Supernatant was pooled and cells palleted at 2000 g, 10 minutes. Cells were resuspended and plated in collagen coated T-25 flaks in Medium-199 enriched with 10% Fetal Bovine Serum and 1% antibiotic-antimycotic.
(§1) Viability of PC-3 after treatment as at the indicated times was determined by MTT assay -Cell titre 96 AQoueus One solution Cell Proliferation Assay (Promega, Corp. Madison, Wis.) as per manufacturer's protocol. Briefly, 10,000 cells were plated in triplicate in 96 well plates and incubated for 12 hours in complete media. Compound MK-3 was added as indicated on replacing them to fresh complete media and incubated upto 96 hours for varied time periods. 20 μl per well of cell titre 96 AQoueus One solution reagent. Incubate the plate for 1-4 hours at 37° C. and humidified 5% CO2 atmosphere. Absorbance was recorded at 490 nm with 96 well plate readers. Reference wavelength of 630 nm was used to reduce background contributed by non-specific absorbance due to cell debris.

[3] = test system: hepatocyte; experiment: Cell viability of control cells: neonatal hepatocyte; type: cell-based, rat; conditions: 100 μg/ml M. koenigii + 100 μg/ml T. terrestris, total 200 μg/ml; 96 h
Protocol: The hepatocytes from 2-day-old neonatal rat were isolated by method described previously by William E Russell (1997) with modifications. Briefly, the livers were perfused through the portal vein with a calcium-free solution consisting of 150 mM NaCl, 2.8 mM KCl, 5.5 mM glucose, and 25 mM HEPES (pH 7.6) for 10 min, followed by mincing and digestion in DMEM containing 0.05% collagenase type IV for 30 minutes. The cells were centrifuged (2000 g, 10 minutes) and dispersed in DMEM enriched with 10% fetal Bovine Serum, 1% antibiotic-antimycotic.
as §1

[4] = Acute toxicity as per WHO guidelines, haematological parameters; type: in vivo, Mice, Balb/C; conditions: mahanine 2 gm/kg body weight orally once, 15 days after treatment; vehicle control 92
Protocol: Experiments for acute toxicity are performed as per the guidelines of WHO. Experimental subject: Mice, Balb/C Male, female. 25 gms body weight (approx) 16 mice were divided into 2 groups 8 animals were received the dosage of @2 gm/kg body weight of combined extract. Equal volume of the vehicle (DMSO) were given to 8 animals wherein dose administered orally once and then animals sacrificed and haematological parameters checked 15 days after treatment.
Experiments for acute toxicity are performed as per the guidelines of WHO. Experimental subject: Mice, Balb/C Male, female. 25 gms body weight (approx) 16 mice were divided into 2 groups 8 animals were received the compound @2 gm/kg body weight. Equal volume of the vehicle (DMSO) were given to 8 animals wherein dose administered orally once and then animals sacrificed and haematological and biochemical parameters checked 15 days after treatment.

mahanine
toxic effects / cell death [1]: no sign of cell death
toxic effects / cell death [2]: no sign of cell death
toxic effects / cell death [3]: no sign of cell death
WBC [4]: 89
